In patent publication US20220348565A1, “PHARMACEUTICAL COMPOUNDS” (SENTINEL ONCOLOGY LIMITED, priority 2019, published 2022):

Key:
Assay in all cases: DiscoverX KinomeScreen kinase selectivity competition binding assay
[1] = biological target: T1, panel of ninety-seven kinases (Homo sapiens, UniProt P49137); settings: MAPKAPK2; read-out: % Ctrl @ 3 μM
T1 construct: purchased DiscoverX; host or cells: T7 phage in E. coli (BL21-derived) for most kinases; HEK-293 for the rest
Description: (§1) Atropisomer A-2 has been tested for off-target activity against a panel of ninety-seven kinases distributed across the kinome at a concentration of 3 μM using the DiscoverX KinomeScreen assay. The DiscoverX KinomeScreen assay is a site-directed competition binding assay which measures the binding affinity of a compound to a kinase, by use of a solid supported control compound which can bind or capture the kinases in solution. In the absence of a kinase-inhibitor test compound, all of the kinase will bind to the solid support. If a kinase-inhibitor test compound is added to the assay mix, the amount of kinase binding to the solid support will be reduced, the extent of reduction being dependent on the potency of the test compound as a kinase inhibitor. […] For most assays, kinase-tagged T7 phage strains were grown in parallel in 24-well blocks in an E. coli host derived from the BL21 strain. E. coli were grown to log-phase and infected with T7 phage from a frozen stock (multiplicity of infection=0.4) and incubated with shaking at 32° C. until lysis (90-150 minutes). The lysates were centrifuged (6,000×g) and filtered (0.2 μm) to remove cell debris. The remaining kinases were produced in HEK-293 cells and subsequently tagged with DNA for qPCR detection. Streptavidin-coated magnetic beads were treated with biotinylated small molecule ligands for 30 minutes at room temperature to generate affinity resins for kinase assays. The liganded beads were blocked with excess biotin and washed with blocking buffer (SeaBlock (Pierce), 1% BSA, 0.05% Tween 20, 1 mM DTT) to remove unbound ligand and to reduce non-specific phage binding. […] Test compounds were prepared as 40× stocks in 100% DMSO and directly diluted into the assay. All reactions were performed in polypropylene 384-well plates in a final volume of 0.02 ml. […] The beads were then re-suspended in elution buffer (1×PBS, 0.05% Tween 20, 0.5 μM non-biotinylated affinity ligand) and incubated at room temperature with shaking for 30 minutes. The kinase concentration in the eluates was measured by qPCR. Compounds that bind the kinase active site and directly (sterically) or indirectly (allosterically) prevent kinase binding to the immobilized ligand, will reduce the amount of kinase captured on the solid support. […] The strength of binding of the test molecule to the kinase can be expressed as the percent control (% Ctrl) The compound(s) were screened at 3000 nM concentration, and results for primary screen binding interactions are reported as ‘% Ctrl’, where lower numbers indicate stronger hits in the matrix on the following page(s). [formula] • negative control=DMSO (100% Ctrl) • positive control=control compound (0% Ctrl)

[2] = biological target: T2, panel of ninety-seven kinases (Homo sapiens, UniProt Q02156); settings: PRKCE; read-out: % Ctrl @ 3 μM
T2 construct: purchased DiscoverX; host or cells: T7 phage in E. coli (BL21-derived) for most kinases; HEK-293 for the rest
Description: as §1

[3] = biological target: T3, panel of ninety-seven kinases (Homo sapiens, UniProt P22607); settings: FGFR3; read-out: % Ctrl @ 3 μM
T3 construct: purchased DiscoverX; host or cells: T7 phage in E. coli (BL21-derived) for most kinases; HEK-293 for the rest
Description: as §1

[4] = biological target: T4, panel of ninety-seven kinases (Homo sapiens, UniProt Q00536); settings: CDK16; read-out: % Ctrl @ 3 μM
T4 construct: purchased DiscoverX; host or cells: T7 phage in E. coli (BL21-derived) for most kinases; HEK-293 for the rest
Description: as §1

[5] = biological target: T5, panel of ninety-seven kinases (Homo sapiens, UniProt Q9BVS4); settings: RIOK2; read-out: % Ctrl @ 3 μM
T5 construct: purchased DiscoverX; host or cells: T7 phage in E. coli (BL21-derived) for most kinases; HEK-293 for the rest
Description: as §1

[6] = biological target: T6, panel of ninety-seven kinases (Homo sapiens, UniProt P36507); settings: MAP2K2; read-out: % Ctrl @ 3 μM
T6 construct: purchased DiscoverX; host or cells: T7 phage in E. coli (BL21-derived) for most kinases; HEK-293 for the rest
Description: as §1

[7] = biological target: T7, panel of ninety-seven kinases (Homo sapiens, UniProt Q9Y463); settings: DYRK1B; read-out: % Ctrl @ 3 μM
T7 construct: purchased DiscoverX; host or cells: T7 phage in E. coli (BL21-derived) for most kinases; HEK-293 for the rest
Description: as §1

[8] = biological target: T8, panel of ninety-seven kinases (Homo sapiens, UniProt Q9Y6R4); settings: MAP3K4; read-out: % Ctrl @ 3 μM
T8 construct: purchased DiscoverX; host or cells: T7 phage in E. coli (BL21-derived) for most kinases; HEK-293 for the rest
Description: as §1

[9] = biological target: T9, panel of ninety-seven kinases (Homo sapiens, UniProt P21802); settings: FGFR2; read-out: % Ctrl @ 3 μM
T9 construct: purchased DiscoverX; host or cells: T7 phage in E. coli (BL21-derived) for most kinases; HEK-293 for the rest
Description: as §1

[10] = biological target: T10, panel of ninety-seven kinases (Homo sapiens, UniProt P48730); settings: CSNK1D; read-out: % Ctrl @ 3 μM
T10 construct: purchased DiscoverX; host or cells: T7 phage in E. coli (BL21-derived) for most kinases; HEK-293 for the rest
Description: as §1

[11] = biological target: T11, panel of ninety-seven kinases (Homo sapiens, UniProt P27448); settings: MARK3; read-out: % Ctrl @ 3 μM
T11 construct: purchased DiscoverX; host or cells: T7 phage in E. coli (BL21-derived) for most kinases; HEK-293 for the rest
Description: as §1

[12] = biological target: T12, panel of ninety-seven kinases (Homo sapiens, UniProt P27361); settings: MAPK3; read-out: % Ctrl @ 3 μM
T12 construct: purchased DiscoverX; host or cells: T7 phage in E. coli (BL21-derived) for most kinases; HEK-293 for the rest
Description: as §1

[13] = biological target: T13, panel of ninety-seven kinases (Homo sapiens, UniProt P06213); settings: INSR; read-out: % Ctrl @ 3 μM
T13 construct: purchased DiscoverX; host or cells: T7 phage in E. coli (BL21-derived) for most kinases; HEK-293 for the rest
Description: as §1

[14] = biological target: T14, panel of ninety-seven kinases (Homo sapiens, UniProt Q02750); settings: MAP2K1; read-out: % Ctrl @ 3 μM
T14 construct: purchased DiscoverX; host or cells: T7 phage in E. coli (BL21-derived) for most kinases; HEK-293 for the rest
Description: as §1

[15] = biological target: T15, panel of ninety-seven kinases (Homo sapiens, UniProt Q86UX6); settings: STK32C; read-out: % Ctrl @ 3 μM
T15 construct: purchased DiscoverX; host or cells: T7 phage in E. coli (BL21-derived) for most kinases; HEK-293 for the rest
Description: as §1

[16] = biological target: T16, panel of ninety-seven kinases (Homo sapiens, UniProt O15530); settings: PDPK1; read-out: % Ctrl @ 3 μM
T16 construct: purchased DiscoverX; host or cells: T7 phage in E. coli (BL21-derived) for most kinases; HEK-293 for the rest
Description: as §1

[17] = biological target: T17, panel of ninety-seven kinases (Homo sapiens, UniProt O15111); settings: CHUK; read-out: % Ctrl @ 3 μM
T17 construct: purchased DiscoverX; host or cells: T7 phage in E. coli (BL21-derived) for most kinases; HEK-293 for the rest
Description: as §1

[18] = biological target: T18, panel of ninety-seven kinases (Homo sapiens, UniProt P45984); settings: MAPK9; read-out: % Ctrl @ 3 μM
T18 construct: purchased DiscoverX; host or cells: T7 phage in E. coli (BL21-derived) for most kinases; HEK-293 for the rest
Description: as §1

[19] = biological target: T19, panel of ninety-seven kinases (Homo sapiens, UniProt Q16539); settings: MAPK14; read-out: % Ctrl @ 3 μM
T19 construct: purchased DiscoverX; host or cells: T7 phage in E. coli (BL21-derived) for most kinases; HEK-293 for the rest
Description: as §1

[20] = biological target: T20, panel of ninety-seven kinases (Homo sapiens, UniProt O00750); settings: PIK3C2B; read-out: % Ctrl @ 3 μM
T20 construct: purchased DiscoverX; host or cells: T7 phage in E. coli (BL21-derived) for most kinases; HEK-293 for the rest
Description: as §1

[21] = biological target: T21, panel of ninety-seven kinases (Homo sapiens, UniProt P04629); settings: NTRK1; read-out: % Ctrl @ 3 μM
T21 construct: purchased DiscoverX; host or cells: T7 phage in E. coli (BL21-derived) for most kinases; HEK-293 for the rest
Description: as §1

T18 sequence (P45984 whole entry): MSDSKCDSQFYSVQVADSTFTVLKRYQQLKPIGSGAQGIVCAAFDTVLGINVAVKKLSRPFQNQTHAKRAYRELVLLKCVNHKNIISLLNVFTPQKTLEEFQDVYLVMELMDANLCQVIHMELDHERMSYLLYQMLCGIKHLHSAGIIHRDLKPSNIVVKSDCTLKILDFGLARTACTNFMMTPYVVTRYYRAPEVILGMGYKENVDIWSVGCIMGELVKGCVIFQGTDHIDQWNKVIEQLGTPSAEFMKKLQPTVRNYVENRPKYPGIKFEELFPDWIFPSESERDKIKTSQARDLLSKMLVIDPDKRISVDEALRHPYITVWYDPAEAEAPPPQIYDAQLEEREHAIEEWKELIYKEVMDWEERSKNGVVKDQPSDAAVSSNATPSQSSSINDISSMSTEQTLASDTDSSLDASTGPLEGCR
T16 sequence (O15530 whole entry): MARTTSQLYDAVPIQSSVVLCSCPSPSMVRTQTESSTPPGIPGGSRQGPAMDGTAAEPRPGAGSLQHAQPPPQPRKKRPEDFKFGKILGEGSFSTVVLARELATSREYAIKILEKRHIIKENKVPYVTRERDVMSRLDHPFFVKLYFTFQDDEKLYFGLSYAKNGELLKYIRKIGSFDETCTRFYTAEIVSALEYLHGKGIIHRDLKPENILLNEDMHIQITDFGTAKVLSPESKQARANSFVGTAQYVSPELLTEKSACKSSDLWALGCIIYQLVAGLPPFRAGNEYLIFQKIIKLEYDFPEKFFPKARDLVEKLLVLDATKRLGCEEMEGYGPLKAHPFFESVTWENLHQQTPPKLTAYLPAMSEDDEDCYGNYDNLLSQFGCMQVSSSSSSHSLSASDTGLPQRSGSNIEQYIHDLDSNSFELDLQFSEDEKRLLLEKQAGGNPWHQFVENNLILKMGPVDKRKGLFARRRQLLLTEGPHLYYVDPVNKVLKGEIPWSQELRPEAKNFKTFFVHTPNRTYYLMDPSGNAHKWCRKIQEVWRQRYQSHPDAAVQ
T1 sequence (P49137 whole entry): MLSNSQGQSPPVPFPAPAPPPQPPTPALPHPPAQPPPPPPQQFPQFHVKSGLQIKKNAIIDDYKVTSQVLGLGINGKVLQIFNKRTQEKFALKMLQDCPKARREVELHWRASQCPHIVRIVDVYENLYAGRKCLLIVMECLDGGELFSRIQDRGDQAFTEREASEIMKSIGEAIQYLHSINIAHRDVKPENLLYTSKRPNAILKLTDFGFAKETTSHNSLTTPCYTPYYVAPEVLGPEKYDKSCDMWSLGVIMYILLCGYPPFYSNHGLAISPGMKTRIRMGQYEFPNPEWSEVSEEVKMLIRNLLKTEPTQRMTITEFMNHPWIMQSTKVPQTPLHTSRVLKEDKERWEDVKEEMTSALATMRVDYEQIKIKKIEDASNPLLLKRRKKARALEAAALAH
T4 sequence (Q00536 whole entry): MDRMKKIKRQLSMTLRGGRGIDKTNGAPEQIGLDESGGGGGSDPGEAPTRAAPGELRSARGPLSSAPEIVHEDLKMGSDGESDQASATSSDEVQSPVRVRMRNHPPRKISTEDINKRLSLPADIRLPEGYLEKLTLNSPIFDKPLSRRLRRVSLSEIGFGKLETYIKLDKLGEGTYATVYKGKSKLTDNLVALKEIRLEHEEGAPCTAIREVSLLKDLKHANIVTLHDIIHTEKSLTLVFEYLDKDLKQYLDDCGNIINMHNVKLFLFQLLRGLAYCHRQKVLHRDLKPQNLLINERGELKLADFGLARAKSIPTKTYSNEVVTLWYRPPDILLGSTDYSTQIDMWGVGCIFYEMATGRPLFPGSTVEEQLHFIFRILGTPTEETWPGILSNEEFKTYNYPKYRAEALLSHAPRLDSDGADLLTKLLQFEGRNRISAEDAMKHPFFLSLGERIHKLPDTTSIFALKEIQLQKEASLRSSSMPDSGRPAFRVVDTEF
T21 sequence (P04629 33-796): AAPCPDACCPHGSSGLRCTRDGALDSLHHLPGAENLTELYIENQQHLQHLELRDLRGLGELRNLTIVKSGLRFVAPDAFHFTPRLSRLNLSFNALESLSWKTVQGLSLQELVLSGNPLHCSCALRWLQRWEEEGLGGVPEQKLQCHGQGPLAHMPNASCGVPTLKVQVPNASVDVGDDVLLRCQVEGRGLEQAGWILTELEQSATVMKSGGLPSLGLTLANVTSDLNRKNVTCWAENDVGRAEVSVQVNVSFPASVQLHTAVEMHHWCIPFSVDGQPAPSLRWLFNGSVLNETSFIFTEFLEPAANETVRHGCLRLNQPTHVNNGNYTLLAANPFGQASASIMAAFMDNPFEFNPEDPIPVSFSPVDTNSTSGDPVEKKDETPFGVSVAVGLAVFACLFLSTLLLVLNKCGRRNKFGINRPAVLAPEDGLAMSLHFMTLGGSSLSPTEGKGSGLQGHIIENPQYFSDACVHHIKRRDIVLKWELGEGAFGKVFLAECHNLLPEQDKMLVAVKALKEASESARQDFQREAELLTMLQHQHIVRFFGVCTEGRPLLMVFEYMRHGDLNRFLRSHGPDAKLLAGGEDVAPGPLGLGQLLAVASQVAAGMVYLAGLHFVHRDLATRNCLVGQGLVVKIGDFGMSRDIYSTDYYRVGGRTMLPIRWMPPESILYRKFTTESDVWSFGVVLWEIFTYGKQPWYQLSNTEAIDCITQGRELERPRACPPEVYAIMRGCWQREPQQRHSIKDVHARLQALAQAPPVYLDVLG
T2 sequence (Q02156 whole entry): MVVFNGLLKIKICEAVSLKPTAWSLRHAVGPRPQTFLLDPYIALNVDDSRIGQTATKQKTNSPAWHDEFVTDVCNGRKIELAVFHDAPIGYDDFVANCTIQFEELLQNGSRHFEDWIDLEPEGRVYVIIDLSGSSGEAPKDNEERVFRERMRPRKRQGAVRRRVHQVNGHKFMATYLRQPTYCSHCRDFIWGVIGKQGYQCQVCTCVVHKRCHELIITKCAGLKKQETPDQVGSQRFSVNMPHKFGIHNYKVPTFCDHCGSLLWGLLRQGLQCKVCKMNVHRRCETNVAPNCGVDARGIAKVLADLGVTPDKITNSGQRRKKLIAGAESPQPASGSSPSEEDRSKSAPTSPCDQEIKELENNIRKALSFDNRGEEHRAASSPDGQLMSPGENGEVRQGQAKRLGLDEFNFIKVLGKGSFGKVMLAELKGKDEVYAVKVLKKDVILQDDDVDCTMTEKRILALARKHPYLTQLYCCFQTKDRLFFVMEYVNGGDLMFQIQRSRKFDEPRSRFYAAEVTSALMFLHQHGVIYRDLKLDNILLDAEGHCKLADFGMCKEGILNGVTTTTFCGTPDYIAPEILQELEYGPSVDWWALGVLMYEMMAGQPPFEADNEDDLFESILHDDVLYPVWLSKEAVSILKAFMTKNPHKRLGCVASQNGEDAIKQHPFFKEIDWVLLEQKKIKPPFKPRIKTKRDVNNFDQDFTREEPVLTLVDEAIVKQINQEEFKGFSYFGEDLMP
T6 sequence (P36507 whole entry): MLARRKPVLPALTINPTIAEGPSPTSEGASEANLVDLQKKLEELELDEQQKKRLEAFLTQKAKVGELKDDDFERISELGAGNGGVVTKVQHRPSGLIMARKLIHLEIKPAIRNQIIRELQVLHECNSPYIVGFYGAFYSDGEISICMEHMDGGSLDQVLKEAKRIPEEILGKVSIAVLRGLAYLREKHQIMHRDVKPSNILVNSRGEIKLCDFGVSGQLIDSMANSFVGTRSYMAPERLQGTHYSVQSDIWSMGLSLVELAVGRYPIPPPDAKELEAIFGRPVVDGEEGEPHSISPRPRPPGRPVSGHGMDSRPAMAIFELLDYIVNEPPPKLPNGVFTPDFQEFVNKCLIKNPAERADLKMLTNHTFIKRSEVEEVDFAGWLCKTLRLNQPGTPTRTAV
T19 sequence (Q16539 whole entry): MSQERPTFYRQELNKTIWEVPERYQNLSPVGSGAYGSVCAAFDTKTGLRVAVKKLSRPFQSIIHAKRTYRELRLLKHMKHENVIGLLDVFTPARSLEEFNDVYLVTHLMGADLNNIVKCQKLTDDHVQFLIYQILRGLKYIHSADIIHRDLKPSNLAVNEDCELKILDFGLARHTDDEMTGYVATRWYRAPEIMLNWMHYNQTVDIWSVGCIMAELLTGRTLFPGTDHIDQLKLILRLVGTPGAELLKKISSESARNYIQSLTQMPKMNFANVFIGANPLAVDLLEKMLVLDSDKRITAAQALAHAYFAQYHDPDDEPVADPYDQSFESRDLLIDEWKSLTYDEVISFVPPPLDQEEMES
T12 sequence (P27361 whole entry): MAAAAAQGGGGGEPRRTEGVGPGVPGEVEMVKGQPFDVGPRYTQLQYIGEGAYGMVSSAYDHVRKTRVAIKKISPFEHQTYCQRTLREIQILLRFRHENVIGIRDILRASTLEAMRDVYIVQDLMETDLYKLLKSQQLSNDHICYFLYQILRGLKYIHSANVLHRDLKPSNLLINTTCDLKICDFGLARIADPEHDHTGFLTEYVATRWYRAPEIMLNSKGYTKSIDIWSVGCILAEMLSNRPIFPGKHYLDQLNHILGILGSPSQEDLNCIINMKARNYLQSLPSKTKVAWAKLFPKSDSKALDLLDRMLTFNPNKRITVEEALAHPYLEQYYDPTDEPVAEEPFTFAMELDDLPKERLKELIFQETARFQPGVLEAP
T14 sequence (Q02750 whole entry): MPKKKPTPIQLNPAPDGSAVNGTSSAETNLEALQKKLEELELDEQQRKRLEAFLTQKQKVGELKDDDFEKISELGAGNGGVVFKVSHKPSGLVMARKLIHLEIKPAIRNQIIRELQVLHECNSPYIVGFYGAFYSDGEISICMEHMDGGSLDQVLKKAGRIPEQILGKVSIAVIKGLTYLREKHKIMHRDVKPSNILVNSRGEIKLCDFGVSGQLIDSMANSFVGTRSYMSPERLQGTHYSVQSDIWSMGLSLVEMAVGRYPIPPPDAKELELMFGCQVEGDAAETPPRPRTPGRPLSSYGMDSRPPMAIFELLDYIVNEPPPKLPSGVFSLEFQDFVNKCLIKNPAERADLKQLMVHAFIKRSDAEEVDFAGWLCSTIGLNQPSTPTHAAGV

percent of control kinase binding to immobilized ligand at 3 µM [1]: 75%
percent of control kinase binding to immobilized ligand at 3 µM [2]: 99%
percent of control kinase binding to immobilized ligand at 3 µM [3]: 92%
percent of control kinase binding to immobilized ligand at 3 µM [4]: 100%
percent of control kinase binding to immobilized ligand at 3 µM [5]: 100%
percent of control kinase binding to immobilized ligand at 3 µM [6]: 81%
percent of control kinase binding to immobilized ligand at 3 µM [7]: 97%
percent of control kinase binding to immobilized ligand at 3 µM [8]: 93%
percent of control kinase binding to immobilized ligand at 3 µM [9]: 85%
percent of control kinase binding to immobilized ligand at 3 µM [10]: 91%
percent of control kinase binding to immobilized ligand at 3 µM [11]: 100%
percent of control kinase binding to immobilized ligand at 3 µM [12]: 99%
percent of control kinase binding to immobilized ligand at 3 µM [13]: 100%
percent of control kinase binding to immobilized ligand at 3 µM [14]: 84%
percent of control kinase binding to immobilized ligand at 3 µM [15]: 100%
percent of control kinase binding to immobilized ligand at 3 µM [16]: 96%
percent of control kinase binding to immobilized ligand at 3 µM [17]: 100%
percent of control kinase binding to immobilized ligand at 3 µM [18]: 80%
percent of control kinase binding to immobilized ligand at 3 µM [19]: 100%
percent of control kinase binding to immobilized ligand at 3 µM [20]: 100%
percent of control kinase binding to immobilized ligand at 3 µM [21]: 100%
SMILES: CN(C)CCNC(=O)c1ccc(-c2ccc(-c3ccc(Cl)cc3)n2-c2ccccc2C(F)(F)F)cc1 (single isomer, unassigned) [Atropisomer A-2, 4-[5-(4-chlorophenyl)-1-[2-(trifluoromethyl)phenyl]pyrrol-2-yl]-N-[2-(dimethylamino)ethyl]benzamide]
